Bridge positions count the residues as written; N and C are the ends. Square brackets hold non-standard residues; d marks the D form. Peptide text beside a SMILES is read from it. * marks the point of attachment. ξ: configuration not given here. Phe(3-CF3) = N[C@@H](Cc1cccc(C(F)(F)F)c1)C(=O)O; Phe(4-COOH) = N[C@@H](Cc1ccc(C(=O)O)cc1)C(=O)O; Bip = N[C@@H](Cc1ccc(-c2ccccc2)cc1)C(=O)O; Phe(3-Me) = Cc1cccc(C[C@H](N)C(=O)O)c1; Val(3-OH) = CC(C)(O)[C@H](N)C(=O)O; 3Pal = N[C@@H](Cc1cccnc1)C(=O)O; 3Thi = N[C@@H](Cc1ccsc1)C(=O)O; Cha = N[C@@H](CC1CCCCC1)C(=O)O; Ile(3ξ) = CCC(C)[C@H](N)C(=O)O; Thr(3ξ) = CC(O)[C@H](N)C(=O)O; ξCha = NC(CC1CCCCC1)C(=O)O; Carboxymethyl = O=C(O)C*; NMeA = CN[C@@H](C)C(=O)O; Orn = NCCC[C@H](N)C(=O)O; Dab = NCC[C@H](N)C(=O)O

In the first assay the target is T1, PE-labeled human PD-L1-Ig binding to Jurkat cell line over-expressing human PD-1 (Jurkat-PD-1) (Homo sapiens, UniProt Q15116).
T1 construct: expressed in transfected cells; host or cells: Jurkat
T1 sequence (Q15116 25-288): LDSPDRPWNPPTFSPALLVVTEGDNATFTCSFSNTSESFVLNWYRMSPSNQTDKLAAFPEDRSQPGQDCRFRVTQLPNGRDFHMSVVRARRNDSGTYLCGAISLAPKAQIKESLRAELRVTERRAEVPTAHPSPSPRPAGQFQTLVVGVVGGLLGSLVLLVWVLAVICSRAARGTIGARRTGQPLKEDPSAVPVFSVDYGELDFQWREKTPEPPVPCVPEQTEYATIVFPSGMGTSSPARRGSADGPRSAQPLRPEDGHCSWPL
The assay is described as follows: Jurkat-PD-1 Cell Binding High-Content Screening Assay (CBA): Method 1. As to conditions: Jurkat HPDL1 PD1 IC50 (uM) (Method 1), Jurkat-hPD-1 cells, PE-labeled PD-L1-Ig 20 nM final.
With `CC(C)C[C@@H]1NC(=O)[C@H](CCN)NC(=O)[C@@H](CC(C)C)NC(=O)[C@H](C)N(C)C(=O)[C@H](CCCNC(=N)N)NC(=O)[C@H](Cc2ccc(-c3ccccc3)cc2)NC(=O)[C@H](C(C)C)NC(=O)[C@H](Cc2c[nH]c3ccccc23)NC(=O)[C@H](CC(=O)O)NC(=O)[C@H](Cc2ccc(O)cc2)NC(=O)[C@H](Cc2ccccc2)NC(=O)CSC[C@@H](C(=O)N[C@@H](C)C(N)=O)NC(=O)[C@H](CO)NC(=O)[C@H](C(C)C)NC1=O` [Compound 1030] ({CH2CO}-FYDWV[Bip]R[NMeA][dL][Dab]LVSCA-NH2; thioether N-14), the IC50 was 0.03 µM.

Staying with this assay, now noted: Jurkat-PD-1 cells, PE-labeled PD-L1-Ig; μM; read-out: CBA Method 1 μM.
As for `CCC(C)[C@@H]1NC(=O)[C@H](Cc2ccc(-c3ccccc3)cc2)NC(=O)[C@H](C(C)C)NC(=O)[C@H](Cc2cccc(C)c2)NC(=O)[C@H](CC(=O)O)NC(=O)[C@H](Cc2ccc(OCC(=O)O)cc2)NC(=O)[C@H](C(C)O)NC(=O)CSC[C@@H](C(=O)N[C@@H](CO)C(=O)NCC(=O)N[C@H](CO)C(N)=O)NC(=O)[C@H](C(C)O)NC(=O)[C@H](C(C)C)NC(=O)C(CC2CCCCC2)NC(=O)[C@H](CCN)NC(=O)[C@@H](CC(C)C)NC(=O)[C@H](C)N(C)C1=O` (stereo partly drawn) [Example 5005] ({CH2CO}-[Thr(3ξ)]Y(Carboxymethyl)D[Phe(3-Me)]V[Bip][Ile(3ξ)][NMeA][dL][Dab][ξCha]V[Thr(3ξ)]CSG[dS]-NH2; thioether N-14), the IC50 is 0.02 µM.

The assay is the same for the next values; noted with them: Jurkat-hPD-1 cells, PE-labeled PD-L1-Ig 20 nM final; read-out: Jurkat HPDL1 PD1 IC50 (uM) (Method 1).
Turning to `CC(C)C[C@@H]1NC(=O)[C@H](CCN)NC(=O)[C@@H](CC(C)C)NC(=O)[C@H](C)N(C)C(=O)[C@H](Cc2ccccc2)NC(=O)[C@H](Cc2ccc(-c3ccccc3)cc2)NC(=O)[C@H](C(C)C)NC(=O)[C@H](Cc2c[nH]c3ccccc23)NC(=O)[C@H](CC(=O)O)NC(=O)[C@H](Cc2ccc(O)cc2)NC(=O)[C@H](CC(N)=O)NC(=O)CSC[C@@H](C(=O)N[C@@H](C)C(N)=O)NC(=O)[C@H]([C@@H](C)O)NC(=O)[C@H](C(C)C)NC1=O` [Compound 1272] ({CH2CO}-NYDWV[Bip]F[NMeA][dL][Dab]LVTCA-NH2; thioether N-14), the IC50 is 0.16 µM.
Take `CC(C)C[C@H]1NC(=O)[C@H](C)N(C)C(=O)[C@H](Cc2ccc(OCC(=O)O)cc2)NC(=O)[C@H](Cc2ccc(-c3ccccc3)cc2)NC(=O)[C@H](Cc2ccc(C(=O)O)cc2)NC(=O)[C@H](Cc2c[nH]c3ccccc23)NC(=O)[C@H](CC(=O)O)NC(=O)[C@H](Cc2ccc(OCC(=O)O)cc2)NC(=O)[C@H](Cc2ccsc2)NC(=O)CSC[C@@H](C(=O)N[C@@H](CCN)C(N)=O)NC(=O)[C@H](CO)NC(=O)[C@H](C(C)(C)O)NC(=O)[C@H](CC2CCCCC2)NC(=O)[C@H](CCN)NC1=O` [Compound 2130] ({CH2CO}-[3Thi]Y(Carboxymethyl)DW[Phe(4-COOH)][Bip]Y(Carboxymethyl)[NMeA][dL][Dab][Cha][Val(3-OH)]SC[Dab]-NH2; thioether N-14): the IC50 is 0.03 µM.
Still for that read-out and setting: the result for `CC(C)C[C@@H]1NC(=O)[C@H](CCCNC(=N)N)NC(=O)[C@@H](CC(C)C)NC(=O)[C@H](C)N(C)C(=O)[C@H](C(C)C)NC(=O)[C@H](Cc2ccc(-c3ccccc3)cc2)NC(=O)[C@H](C(C)C)NC(=O)[C@H](Cc2cccc(C(F)(F)F)c2)NC(=O)[C@H](CC(=O)O)NC(=O)[C@H](Cc2ccc(O)cc2)NC(=O)[C@H](CC(N)=O)NC(=O)CSC[C@@H](C(=O)N[C@@H](C)C(N)=O)NC(=O)[C@H]([C@@H](C)O)NC(=O)[C@H](C(C)C)NC1=O` [Compound 1291] ({CH2CO}-NYD[Phe(3-CF3)]V[Bip]V[NMeA][dL]RLVTCA-NH2; thioether N-14) reads 0.02 µM.
For the compound `CC(C)C[C@@H]1NC(=O)[C@H](CCN)NC(=O)[C@@H](CC(C)C)NC(=O)[C@H](C)N(C)C(=O)[C@H](CCCNC(=N)N)NC(=O)[C@H](Cc2ccc(-c3ccccc3)cc2)NC(=O)[C@H](C(C)C)NC(=O)[C@H](Cc2c[nH]c3ccccc23)NC(=O)[C@H](CC(=O)O)NC(=O)[C@H](Cc2ccc(O)cc2)NC(=O)[C@H](Cc2ccccc2)NC(=O)CSC[C@@H](C(=O)N[C@H](C)C(N)=O)NC(=O)[C@H]([C@@H](C)O)NC(=O)[C@H](C(C)C)NC1=O` [Compound 1170] ({CH2CO}-FYDWV[Bip]R[NMeA][dL][Dab]LVTC[dA]-NH2; thioether N-14), the IC50 came out at 0.05 µM.
Consider `CC(C)C[C@@H]1NC(=O)[C@H](CCCN)NC(=O)[C@@H](CC(C)C)NC(=O)[C@H](C)N(C)C(=O)[C@H](CCCNC(=N)N)NC(=O)[C@H](Cc2ccc(-c3ccccc3)cc2)NC(=O)[C@H](C(C)C)NC(=O)[C@H](Cc2c[nH]c3ccccc23)NC(=O)[C@H](CC(=O)O)NC(=O)[C@H](Cc2ccc(O)cc2)NC(=O)[C@H](CC(N)=O)NC(=O)CSC[C@@H](C(=O)N[C@@H](CCC(=O)O)C(N)=O)NC(=O)[C@H]([C@@H](C)O)NC(=O)[C@H](C(C)C)NC1=O` [Compound 1165] ({CH2CO}-NYDWV[Bip]R[NMeA][dL][Orn]LVTCE-NH2; thioether N-14), for which the IC50 stood at 0.15 µM.
For the compound `CC(C)C[C@@H]1NC(=O)[C@H](Cc2c[nH]c3ccccc23)NC(=O)[C@H](CC(=O)O)NC(=O)[C@H](Cc2ccc(C(=O)O)cc2)NC(=O)[C@H](Cc2ccc(OCC(=O)O)cc2)NC(=O)CSC[C@@H](C(=O)N[C@@H](CC(N)=O)C(N)=O)NC(=O)[C@H](CO)NC(=O)[C@H](C(C)C)NC(=O)[C@H](CC2CCCCC2)NC(=O)[C@H](CCN)NC(=O)[C@@H](CC(C)C)NC(=O)[C@H](C)N(C)C(=O)[C@H](C(C)C)NC(=O)[C@H](Cc2ccc(-c3ccccc3)cc2)NC1=O` [Compound 1911] ({CH2CO}-Y(Carboxymethyl)[Phe(4-COOH)]DWL[Bip]V[NMeA][dL][Dab][Cha]VSCN-NH2; thioether N-14), the IC50 turned out to be 0.01 µM.
Consider `CCC(C)[C@@H]1NC(=O)[C@H](Cc2ccc(-c3ccccc3)cc2)NC(=O)[C@H](CC(C)C)NC(=O)[C@H](Cc2c[nH]c3ccccc23)NC(=O)[C@H](CC(=O)O)NC(=O)[C@H](Cc2ccc(C(=O)O)cc2)NC(=O)[C@H](Cc2ccc(OCC(=O)O)cc2)NC(=O)CSC[C@@H](C(=O)N[C@@H](CC(N)=O)C(N)=O)NC(=O)[C@H](CCC(=O)O)NC(=O)[C@H](C(C)C)NC(=O)[C@H](CC2CCCCC2)NC(=O)[C@H](CCN)NC(=O)[C@@H](CC(C)C)NC(=O)[C@H](C)N(C)C1=O` (stereo partly drawn) [Compound 1924] ({CH2CO}-Y(Carboxymethyl)[Phe(4-COOH)]DWL[Bip][Ile(3ξ)][NMeA][dL][Dab][Cha]VECN-NH2; thioether N-14), for which the IC50 is 0.04 µM.
Regarding `CC(C)C[C@@H]1NC(=O)[C@H](CCCNC(=N)N)NC(=O)[C@@H](CC(C)C)NC(=O)[C@H](C)N(C)C(=O)[C@H](CCCNC(=N)N)NC(=O)[C@H](Cc2ccc(-c3ccccc3)cc2)NC(=O)[C@H](C(C)C)NC(=O)[C@H](Cc2c[nH]c3ccccc23)NC(=O)[C@H](CC(=O)O)NC(=O)[C@H](Cc2ccc(OCC(=O)O)cc2)NC(=O)[C@H](Cc2cccnc2)NC(=O)CSC[C@@H](C(=O)N[C@@H](C)C(N)=O)NC(=O)[C@H]([C@@H](C)O)NC(=O)[C@H](C(C)C)NC1=O` [Compound 1110] ({CH2CO}-[3Pal]Y(Carboxymethyl)DWV[Bip]R[NMeA][dL]RLVTCA-NH2; thioether N-14), the IC50 was 0.04 µM.

Values taken from patent publication US20240409585A1, “MACROCYCLIC IMMUNOMODULATORS” (priority 2021, published 2024).
